Reference: patent publication US12098145B2 (Libra Therapeutics, Inc., priority 2022, dated 2024)
pEC50: −log10 of the molar value. Read-outs that look alike come from different tables or passages of the source.

Columns and labels:
TRPML1 = molecular target: T1, TRPML1 (Homo sapiens, UniProt Q9GZU1); test: Cellular TRPML1 assay (FLIPR, GCaMP6f calcium read-out); assay type: cell-based; conditions: for EC50: HEKT-REx/GCaMP6f/TRPML1 cells, FLIPR TETRA, kinetic response over 300 seconds, read-out: TRPML1 FLIPR pEC50 (converted)
T1 construct: expressed in transfected cells; host or cells: HEK T-REx cells stably expressing GCaMP6f and TRPML1
T1 sequence (Q9GZU1 whole entry): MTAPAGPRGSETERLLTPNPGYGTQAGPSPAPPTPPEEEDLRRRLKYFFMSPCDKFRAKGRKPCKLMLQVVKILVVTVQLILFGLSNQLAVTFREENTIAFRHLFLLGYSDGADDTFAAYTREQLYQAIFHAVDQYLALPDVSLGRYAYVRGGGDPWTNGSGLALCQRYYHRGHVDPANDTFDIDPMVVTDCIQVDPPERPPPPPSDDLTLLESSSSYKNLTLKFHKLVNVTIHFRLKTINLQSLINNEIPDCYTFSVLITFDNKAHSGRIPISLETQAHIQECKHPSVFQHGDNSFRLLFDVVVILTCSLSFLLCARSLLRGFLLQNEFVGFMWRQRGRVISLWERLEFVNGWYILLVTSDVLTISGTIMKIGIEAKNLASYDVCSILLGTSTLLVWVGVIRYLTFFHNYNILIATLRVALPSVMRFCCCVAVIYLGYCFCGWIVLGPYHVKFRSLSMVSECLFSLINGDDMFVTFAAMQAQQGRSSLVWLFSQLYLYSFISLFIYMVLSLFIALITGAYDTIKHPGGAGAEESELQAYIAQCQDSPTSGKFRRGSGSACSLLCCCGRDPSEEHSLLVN
Summary of the method: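 HEK T-REx cells stably expressing TRPML1 and GCaMP6f, seeded 24 h before in Optimem + 0.5% FBS. After ~10 min pre-incubation at room temperature, compounds in Ca2+-free Tyrode's buffer were injected on FLIPR Tetra (final DMSO 0.5%). Calcium fluorescence kinetics followed for 300 s.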

TFEB = TFEB translocation assay (TFEB reporter in U2OS cells, imaging); assay type: cell-based; conditions: Homo sapiens; U2OS cell line with TFEB reporter, 2 hours incubation, nucleus to cytoplasm ratio, normalized to Torin-1; read-out: TFEB Translocation pEC50 (converted)
Summary of the method: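 U2OS cells stably expressing mRFP-fused TFEB reporter, switched to Opti-MEM then treated 2 h at 37 °C with compounds (0.5% DMSO, 0.015% Tween 80). Hoechst-stained, PFA-fixed cells imaged at 20×; nucleus/cytoplasm intensity ratio per well normalized to Torin-1 (100%) and DMSO (0%).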

EC50 (TRPML1) [nM] | Structure (SMILES) | EC50 (TFEB) [nM] | pEC50 (TRPML1)
10 to 1000 | O=C(Nc1cc(F)c(OC2CC3CC(C3)C2)c(F)c1)c1nc(N2CCCC2)oc1CCF (stereo not shown) [Example 279, N-(4-(bicyclo[3.1.1]heptan-3-yloxy)-3,5-difluorophenyl)-5-(2-fluoroethyl)-2-(pyrrolidin-1-yl)oxazole-4-carboxamide] | 10 to 1000 | –
10 to 1000 | COC1(C)CN(c2nc(C(=O)Nc3cc(C)c(OC4CC5CC(C5)C4)c(F)c3)c(CCF)o2)C1 (stereo not shown) [Example 281, N-(4-(bicyclo[3.1.1]heptan-3-yloxy)-3-fluoro-5-methylphenyl)-5-(2-fluoroethyl)-2-(3-methoxy-3-methylazetidin-1-yl)oxazole-4-carboxamide] | 10 to 1000 | –
10 to 1000 | CCC1(CC)CN(c2nc(C(=O)Nc3cc(C)c(OC4CC5CC(C5)C4)c(F)c3)c(CCF)o2)C1 (stereo not shown) [Example 282, N-(4-(bicyclo[3.1.1]heptan-3-yloxy)-3-fluoro-5-methylphenyl)-2-(3,3-diethylazetidin-1-yl)-5-(2-fluoroethyl)oxazole-4-carboxamide] | 10 to 1000 | –
10 to 1000 | CCC1(CC)CN(c2nc(C(=O)Nc3ccc(OC4CC5CC(C5)C4)c(F)c3)c(CCF)o2)C1 (stereo not shown) [Example 283, N-(4-(bicyclo[3.1.1]heptan-3-yloxy)-3-fluorophenyl)-2-(3,3-diethylazetidin-1-yl)-5-(2-fluoroethyl)oxazole-4-carboxamide] | 10 to 1000 | –
10 to 1000 | O=C(Nc1cc(F)c(OC2CC3CC(C3)C2)c(F)c1)c1nc(N2CCC3(CC3)C2)oc1CCF (stereo not shown) [Example 284, N-(4-(bicyclo[3.1.1]heptan-3-yloxy)-3,5-difluorophenyl)-5-(2-fluoroethyl)-2-(5-azaspiro[2.4]heptan-5-yl)oxazole-4-carboxamide] | 10 to 1000 | –
10 to 1000 | CCC1(CC)CN(c2nc(C(=O)Nc3cc(F)c(OC4CC5CC(C5)C4)c(F)c3)c(CCF)o2)C1 (stereo not shown) [Example 286, N-(4-(bicyclo[3.1.1]heptan-3-yloxy)-3,5-difluorophenyl)-2-(3,3-diethylazetidin-1-yl)-5-(2-fluoroethyl)oxazole-4-carboxamide] | 10 to 1000 | –
10 to 1000 | CCC1(CC)CN(c2nc(C(=O)Nc3cc(F)c(O[C@@H]4C[C@@H]5C[C@@H]5C4)c(F)c3)c(CCF)o2)C1 [Example 287, N-(4-(cis-bicyclo[3.1.0]hexan-3-yloxy)-3,5-difluorophenyl)-2-(3,3-diethylazetidin-1-yl)-5-(2-fluoroethyl)oxazole-4-carboxamide] | 10 to 1000 | –
10 to 1000 | O=C(Nc1cc(F)c(O[C@@H]2C[C@@H]3C[C@@H]3C2)c(F)c1)c1nc(N2CCC3(CC3)C2)oc1CCF [Example 288, N-(4-(cis-bicyclo[3.1.0]hexan-3-yloxy)-3,5-difluorophenyl)-5-(2-fluoroethyl)-2-(5-azaspiro[2.4]heptan-5-yl)oxazole-4-carboxamide] | 10 to 1000 | –
10 to 1000 | COCc1oc(N2CC(C)(CO)C2)nc1C(=O)Nc1cc(C)c(OC2CC3CC(C3)C2)c(F)c1 (stereo not shown) [Example 296, N-(4-(bicyclo[3.1.1]heptan-3-yloxy)-3-fluoro-5-methylphenyl)-2-(3-(hydroxymethyl)-3-methylazetidin-1-yl)-5-(methoxymethyl)oxazole-4-carboxamide] | 10 to 1000 | –
10 to 1000 | CCN(C)Cc1oc(N2CC(CC)(OC)C2)nc1C(=O)Nc1cc(F)c(OC2CC3CC(C3)C2)c(F)c1 (stereo not shown) [Example 302, N-(4-(bicyclo[3.1.1]heptan-3-yloxy)-3,5-difluorophenyl)-5-((ethyl(methyl)amino)methyl)-2-(3-ethyl-3-methoxyazetidin-1-yl)oxazole-4-carboxamide] | 10 to 1000 | –

The next lines start with the molecule.

Structure (SMILES) | EC50 (TRPML1) [nM] | EC50 (TFEB) [nM] | pEC50 (TRPML1)
COC1(C)CN(c2nc(C(=O)Nc3cc(C)c(O[C@@H]4C[C@@H]5C[C@@H]5C4)c(F)c3)c(CCF)o2)C1 [Example 280, N-(4-(cis-bicyclo[3.1.0]hexan-3-yloxy)-3-fluoro-5-methylphenyl)-5-(2-fluoroethyl)-2-(3-methoxy-3-methylazetidin-1-yl)oxazole-4-carboxamide] | 10 to 1000 | 10 to 1000 | –
CCC1(CC)CN(c2nc(C(=O)Nc3cc(C)c(O[C@@H]4C[C@@H]5C[C@@H]5C4)c(F)c3)c(CCF)o2)C1 [Example 285, N-(4-(cis-bicyclo[3.1.0]hexan-3-yloxy)-3-fluoro-5-methylphenyl)-2-(3,3-diethylazetidin-1-yl)-5-(2-fluoroethyl)oxazole-4-carboxamide] | 10 to 1000 | 10 to 1000 | –
CCC1(CC)CN(c2nc(C(=O)Nc3cc(C)c(N4C5CCCC4CC5)c(F)c3)c(CCF)o2)C1 [Example 289, N-(4-(8-azabicyclo[3.2.1]octan-8-yl)-3-fluoro-5-methylphenyl)-2-(3,3-diethylazetidin-1-yl)-5-(2-fluoroethyl)oxazole-4-carboxamide] | – | 10 to 1000 | 6.00 to 8.00
COC1(C)CN(c2nc(C(=O)Nc3cc(C)c(N4C5CCCC4CC5)c(F)c3)c(CCF)o2)C1 [Example 290] | – | 10 to 1000 | 6.00 to 8.00
CCC1(CC)CN(c2nc(C(=O)Nc3cc(C)c(O[C@@H]4C[C@@H]5C[C@@H]5C4)c(F)c3)c(COC)o2)C1 [Example 293, N-(4-(cis-bicyclo[3.1.0]hexan-3-yloxy)-3-fluoro-5-methylphenyl)-2-(3,3-diethylazetidin-1-yl)-5-(methoxymethyl)oxazole-4-carboxamide] | 10 to 1000 | 10 to 1000 | –
COCc1oc(N2CC(C)(OC)C2)nc1C(=O)Nc1cc(C)c(O[C@@H]2C[C@@H]3C[C@@H]3C2)c(F)c1 [Example 294, N-(4-(cis-bicyclo[3.1.0]hexan-3-yloxy)-3-fluoro-5-methylphenyl)-2-(3-methoxy-3-methylazetidin-1-yl)-5-(methoxymethyl)oxazole-4-carboxamide] | 10 to 1000 | 10 to 1000 | –
CCC1(CC)CN(c2nc(C(=O)Nc3cc(F)c(OC4CC5C[C@H]5C4)c(F)c3)c(COC)o2)C1 (stereo partly drawn) [Example 295, N-(4-(cis-bicyclo[3.1.0]hexan-3-yloxy)-3,5-difluorophenyl)-2-(3,3-diethylazetidin-1-yl)-5-(methoxymethyl)oxazole-4-carboxamide] | 10 to 1000 | 10 to 1000 | –
CCC1(CC)CN(c2nc(C(=O)Nc3cc(F)c(O[C@@H]4C[C@@H]5C[C@@H]5C4)c(F)c3)c(CN3CCCC3)o2)C1 [Example 299, N-(4-(cis-bicyclo[3.1.0]hexan-3-yloxy)-3,5-difluorophenyl)-2-(3,3-diethylazetidin-1-yl)-5-(pyrrolidin-1-ylmethyl)oxazole-4-carboxamide] | 10 to 1000 | 10 to 1000 | –
CCC1(OC)CN(c2nc(C(=O)Nc3cc(F)c(O[C@@H]4C[C@@H]5C[C@@H]5C4)c(F)c3)c(CN(C)C)o2)C1 [Example 303, N-(4-(cis-bicyclo[3.1.0]hexan-3-yloxy)-3,5-difluorophenyl)-5-((dimethylamino)methyl)-2-(3-ethyl-3-methoxyazetidin-1-yl)oxazole-4-carboxamide] | 10 to 1000 | 10 to 1000 | –
CCN(C)Cc1oc(N2CC(CC)(OC)C2)nc1C(=O)Nc1cc(F)c(O[C@@H]2C[C@@H]3C[C@@H]3C2)c(F)c1 [Example 304, N-(4-(cis-bicyclo[3.1.0]hexan-3-yloxy)-3,5-difluorophenyl)-5-((ethyl(methyl)amino)methyl)-2-(3-ethyl-3-methoxyazetidin-1-yl)oxazole-4-carboxamide] | 10 to 1000 | 10 to 1000 | –
